Our source for the IC50 values is BindingDB's records for doi:10.1021/acs.jmedchem.7b00882 (The University of Queensland, 2018).

The nature of assay [1]: Inhibition of C9 binding to C5b678 in […] activated human serum assessed as suppression of human erythrocyte lysis after 1 hr by ELISA. (In an ELISA, binding on a coated surface is turned into a signal by an enzyme label.)
The nature of assay [2]: Inhibition of human serum C2-mediated lysis of antibody-sensitized sheep red blood cells after 30 mins by UV-Vis spectrophotometric method.
Assay [3] can be described thus: Inhibition of human serum C1s-mediated lysis of rabbit Ab-sensitized sheep erythrocytes after 60 mins.
A short description of assay [4]: Inhibition of factor D in […]-activated rat serum assessed as decrease in human erythrocyte lysis.
Assay [5] in a line: Inhibition of factor D in […]-activated human serum assessed as decrease in human erythrocyte lysis.

Structures are written as SMILES. Peptide text beside a SMILES is read from it.

The IC50 is the midpoint of a concentration-inhibition curve. On to `O=C(O)C1=CC(=C(c2ccc(O)c(C(=O)O)c2)c2ccc(O)c(C(=O)O)c2)C=CC1=O` [MLS002153482], for which the IC50 in assay [1] turned out to be 0.5 µM. Take `CC(=O)N[C@@H](CCCNC(=N)N)C(=O)N[C@@H](CC(C)C)C(=O)N[C@@H](CC(C)C)C(=O)N[C@@H](CC(C)C)C(=O)N[C@@H](C)C(=O)N[C@H](C=O)CCCNC(=N)N` (Ac-RLLLAR-aldehyde): the IC50 in assay [2] was 28 µM. Consider `O=C(O)C1=C/C(=C\c2cc(C(c3ccc(O)c(C(=O)O)c3)c3ccc(O)c(C(=O)O)c3)cc(C(=O)O)c2O)C=CC1=O`, for which the IC50 in assay [1] was determined as 0.5 µM. For `N=C(N)c1cc2ccc(OC(=O)c3cccs3)cc2s1`, the IC50 in assay [3] came to 0.046 µM. On to `CC(=O)Oc1ccc(Cc2ccc(OC(C)=O)c(C(=O)O)c2)cc1C(=O)O`, for which the IC50 in assay [4] and in assay [5] was 0.1 µM throughout. Regarding `CC(=O)Oc1ccc(-c2ccc(OC(C)=O)c(C(=O)O)c2)cc1C(=O)O`, the IC50 in assay [4] and in assay [5] was 0.1 µM each time.

Consider `O=C(O)C1=C/C(=C(/c2ccc(O)c(C(=O)O)c2)c2cc(Cc3cc(C(c4ccc(O)c(C(=O)O)c4)c4ccc(O)c(C(=O)O)c4)cc(C(=O)O)c3O)cc(C(=O)O)c2O)C=CC1=O`, for which the IC50 in assay [1] was found to be 0.5 µM.
